Reference: patent US11725000B2, “Apoptosis inhibitors” (National Institute of Biological Sciences, Beijing, priority 2017, dated 2023)

Tested on: U2OS_Bim cells
Test: Apoptosis inhibition assay (Bim-induced apoptosis, cell viability by ATP level)
Type: cell-based
Details: U2OS_Bim cells; estimated (*Est.) / preliminary results; numbering of Tables 4a/4b; read-out: EC50
In short: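 Apoptosis was triggered by doxycycline (0.1 μg/mL) induction of Bim, one hour after compound addition to U2OS_Bim cells. Survival was measured after 24 h from cellular ATP (CellTiter-Glo), relative to DMSO, with zVAD at 20 μM as rescue control. Data are duplicate means, some estimated from preliminary results.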

Row | Compound | EC50 [nM]
1 | Cc1cc(-c2cc(F)c(=O)n(Cc3ccc4nnn(C)c4c3)c2)nc(S(=O)(=O)CCCn2cnc3ccccc32)n1 [Compound 337, 5-(2-((3-(1H-benzo[d]imidazol-1-yl)propyl)sulfonyl)-6-methylpyrimidin-4-yl)-3-fluoro-1-((1-methyl-1H-benzo[d][1,2,3]triazol-6-yl)methyl)pyridin-2 (1H)-one] | 1 to 1000
2 | Cc1cc(-c2cc(F)c(=O)n(Cc3ccc4c(c3)OCO4)c2)nc(S(=O)(=O)CCCn2cnc3ccccc32)n1 [Compound 338, 5-(2-((3-(1H-benzo[d]imidazol-1-yl)propyl)sulfonyl)-6-methylpyrimidin-4-yl)-1-(benzo[d][1,3]dioxol-5-ylmethyl)-3-fluoropyridin-2 (1H)-one] | 1 to 1000
3 | Cc1cc(-c2cc(F)c(=O)n(Cc3cccc(N(C)C)c3)c2)nc(S(=O)(=O)CCC(OCc2ccccc2F)c2ccccc2)n1 (centres unmarked) [Compound 339] | 1 to 1000
4 | Cc1cc(-c2cc(F)c(=O)n(Cc3ccn4ccnc4c3)c2)nc(S(=O)(=O)CCC(OCc2ccccc2F)c2ccccc2)n1 (centres unmarked) [Compound 340] | 1 to 1000
5 | Cc1cc(-c2cc(F)c(=O)n(Cc3ccc4[nH]c(=O)[nH]c4c3)c2)nc(S(=O)(=O)CCC(OCc2ccccc2F)c2ccccc2)n1 (centres unmarked) [Compound 341] | 1 to 1000
6 | Cc1cc(-c2cc(F)c(=O)n(Cc3ccc4c(c3)n(C)c(=O)n4C)c2)nc(S(=O)(=O)CCC(OCc2ccccc2F)c2ccccc2)n1 (centres unmarked) [Compound 342] | 1 to 1000
7 | Cc1cc(-c2cc(F)c(=O)n(Cc3ccc4cn(C)nc4c3)c2)nc(S(=O)(=O)CCC(OCc2ccccc2F)c2ccccc2)n1 (centres unmarked) [Compound 343] | 1 to 1000
8 | Cc1cc(-c2cc(F)c(=O)n(Cc3ccc4c(c3)NC(=O)CO4)c2)nc(S(=O)(=O)CCC(OCc2ccccc2F)c2ccccc2)n1 (centres unmarked) [Compound 344] | 1 to 1000
9 | Cc1cc(-c2cc(F)c(=O)n(Cc3ccc4[nH]c(=O)c(=O)[nH]c4c3)c2)nc(S(=O)(=O)CCC(OCc2ccccc2F)c2ccccc2)n1 (centres unmarked) [Compound 345] | 1 to 1000
10 | Cc1cc(-c2cc(F)c(=O)n(Cc3ccc4c(c3)NCCN4)c2)nc(S(=O)(=O)CCC(OCc2ccccc2F)c2ccccc2)n1 (centres unmarked) [Compound 346] | 1 to 1000
11 | Cc1cc(-c2cc(F)c(=O)n(Cc3ccc4c(c3)N(C)CCN4C)c2)nc(S(=O)(=O)CCC(OCc2ccccc2F)c2ccccc2)n1 (centres unmarked) [Compound 347] | 1 to 1000
12 | Cc1cc(-c2cc(F)c(=O)n(Cc3ccc4ccn(C)c4c3)c2)nc(S(=O)(=O)CCC(OCc2ccccc2F)c2ccccc2)n1 (centres unmarked) [Compound 348] | 1 to 1000
13 | Cc1cc(-c2cc(F)c(=O)n(Cc3ccc4ccn(C)c4c3)c2)nc(S(=O)(=O)CCC(OCc2ccccc2F)c2ccccc2)n1 (centres unmarked) [Compound 349] | 1 to 1000
14 | Cc1cc(-c2cc(F)c(=O)n(Cc3ccc4c(c3)CC(=O)N4)c2)nc(S(=O)(=O)CCC(OCc2ccccc2F)c2ccccc2)n1 (centres unmarked) [Compound 350] | 1 to 1000
15 | Cc1cc(-c2cc(F)c(=O)n(Cc3ccc4c(c3)CC(=O)N4C)c2)nc(S(=O)(=O)CCC(OCc2ccccc2F)c2ccccc2)n1 (centres unmarked) [Compound 351] | 1 to 1000
16 | Cc1cc(-c2cc(F)c(=O)n(Cc3ccc4c(c3)CCN4C)c2)nc(S(=O)(=O)CCC(OCc2ccccc2F)c2ccccc2)n1 (centres unmarked) [Compound 352] | 1 to 1000
17 | Cc1cc(-c2cc(F)c(=O)n(Cc3ccc4c(c3)OCN4C)c2)nc(S(=O)(=O)CCC(OCc2ccccc2F)c2ccccc2)n1 (centres unmarked) [Compound 353] | 1 to 1000
18 | Cc1cc(-c2cc(F)c(=O)n(Cc3ccc4c(c3)N(C)CO4)c2)nc(S(=O)(=O)CCC(OCc2ccccc2F)c2ccccc2)n1 (centres unmarked) [Compound 354] | 1 to 1000
19 | Cc1cc(-c2cc(F)c(=O)n(Cc3ccc4c(c3)CCCO4)c2)nc(S(=O)(=O)CCC(OCc2ccccc2F)c2ccccc2)n1 (centres unmarked) [Compound 355] | 1 to 1000
20 | Cc1cc(-c2cc(F)c(=O)n(Cc3ccc4c(c3)N(C)CCO4)c2)nc(S(=O)(=O)CCC(OCc2ccccc2F)c2ccccc2)n1 (centres unmarked) [Compound 356] | 1 to 1000
21 | Cc1cc(-c2cc(F)c(=O)n(Cc3ccc4c(c3)OCCN4C)c2)nc(S(=O)(=O)CCC(OCc2ccccc2F)c2ccccc2)n1 (centres unmarked) [Compound 357] | 1 to 1000
22 | Cc1cc(-c2cc(F)c(=O)n(Cc3ccc4c(c3)OCCN4)c2)nc(S(=O)(=O)CCC(OCc2ccccc2F)c2ccccc2)n1 (centres unmarked) [Compound 358] | 1 to 1000
23 | Cc1cc(-c2cc(F)c(=O)n(Cc3ccc4c(c3)NCCO4)c2)nc(S(=O)(=O)CCC(OCc2ccccc2F)c2ccccc2)n1 (centres unmarked) [Compound 359] | 1 to 1000
24 | Cc1cc(-c2cc(F)c(=O)n(Cc3ccnc(CCO)c3)c2)nc(S(=O)(=O)CCC(OCc2ccccc2F)c2ccccc2)n1 (centres unmarked) [Compound 360] | 1 to 1000
25 | Cc1cc(-c2cc(F)c(=O)n(Cc3ccnc(N(C)CO)c3)c2)nc(S(=O)(=O)CCC(OCc2ccccc2F)c2ccccc2)n1 (centres unmarked) [Compound 361] | 1 to 1000
26 | Cc1cc(-c2cc(F)c(=O)n(Cc3ccc4c(c3)OCO4)c2)nc(S(=O)(=O)CCCN2C(=O)Cc3ccccc32)n1 [Compound 362] | 1 to 1000
27 | Cc1cc(-c2cc(F)c(=O)n(Cc3ccc4nnn(C)c4c3)c2)nc(S(=O)(=O)CCCN2C(=O)Cc3ccccc32)n1 [Compound 363] | 1 to 1000
28 | Cc1cc(-c2cc(F)c(=O)n(Cc3ccc4c(c3)OCO4)c2)nc(S(=O)(=O)CCCC(=O)NC23CC4CC(CC(C4)C2)C3)n1 [Compound 364] | 1 to 1000

Now from value to compound:

Row | EC50 [nM] | Compound
29 | 1 to 1000 | Cc1cc(-c2cc(F)c(=O)n(Cc3ccc4nnn(C)c4c3)c2)nc(S(=O)(=O)CCCC(=O)NC23CC4CC(CC(C4)C2)C3)n1 [Compound 365]
30 | 1 to 1000 | Cc1cc(-c2cc(F)c(=O)n(Cc3ccc4c(c3)OCO4)c2)nc(S(=O)(=O)CCCn2c(=O)oc3ccccc32)n1 [Compound 366]
31 | 1 to 1000 | Cc1cc(-c2cc(F)c(=O)n(Cc3ccc4nnn(C)c4c3)c2)nc(S(=O)(=O)CCCn2c(=O)oc3ccccc32)n1 [Compound 367]
32 | 1 to 1000 | Cc1cc(-c2ccc(=O)n(Cc3ccc4c(c3)OCCO4)n2)nc(S(=O)(=O)CCC(OCc2ccccc2F)c2ccccc2)n1 (centres unmarked) [Compound 368]
33 | 1 to 1000 | Cc1cc(-c2ccc(=O)n(Cc3ccc4nnn(C)c4c3)n2)nc(S(=O)(=O)CCC(OCc2ccccc2F)c2ccccc2)n1 (centres unmarked) [Compound 369]
34 | 1 to 1000 | Cc1cc(-c2cc(F)c(=O)n(Cc3ccc4c(c3)OCO4)c2)nc(S(=O)(=O)CCCC(=O)N(c2ccccc2)C2CCC2)n1 [Compound 370]
35 | 1 to 1000 | Cc1cc(-c2cc(F)c(=O)n(Cc3ccc4c(c3)OCO4)c2)nc(S(=O)(=O)CCCC(=O)N(c2ccccc2)C(C)(C)C)n1 [Compound 371]
36 | 1 to 1000 | Cc1cc(-c2cc(F)c(=O)n(Cc3ccc4c(c3)OCO4)c2)nc(S(=O)(=O)CCCC(=O)N(c2ccccc2)C2CC2)n1 [Compound 372]
37 | 1 to 1000 | Cc1cc(-c2cc(F)c(=O)n(Cc3ccc4nnn(C)c4c3)c2)nc(S(=O)(=O)CCCC(=O)N(c2ccccc2)C2CCC2)n1 [Compound 373]
38 | 1 to 1000 | Cc1cc(-c2cc(F)c(=O)n(Cc3ccc4nnn(C)c4c3)c2)nc(S(=O)(=O)CCCC(=O)N(c2ccccc2)C(C)(C)C)n1 [Compound 374]
39 | 1 to 1000 | Cc1cc(-c2cc(F)c(=O)n(Cc3ccc4nnn(C)c4c3)c2)nc(S(=O)(=O)CCCC(=O)N(c2ccccc2)C2CC2)n1 [Compound 375]
40 | 1 to 1000 | Cc1cc(-c2cc(F)c(=O)n(Cc3ccc4c(c3)OCO4)c2)nc(S(=O)(=O)CCCN(c2ccccc2)C2CCC2)n1 [Compound 376]
41 | 1 to 1000 | Cc1cc(-c2cc(F)c(=O)n(Cc3ccc4c(c3)OCO4)c2)nc(S(=O)(=O)CCCN(c2ccccc2)C(C)(C)C)n1 [Compound 377]
42 | 1 to 1000 | Cc1cc(-c2cc(F)c(=O)n(Cc3ccc4c(c3)OCO4)c2)nc(S(=O)(=O)CCCN(c2ccccc2)C2CC2)n1 [Compound 378]
43 | 1 to 1000 | Cc1cc(-c2cc(F)c(=O)n(Cc3ccc4nnn(C)c4c3)c2)nc(S(=O)(=O)CCCN(c2ccccc2)C2CCC2)n1 [Compound 379]
44 | 1 to 1000 | Cc1cc(-c2cc(F)c(=O)n(Cc3ccc4nnn(C)c4c3)c2)nc(S(=O)(=O)CCCN(c2ccccc2)C(C)(C)C)n1 [Compound 380]
45 | 1 to 1000 | Cc1cc(-c2cc(F)c(=O)n(Cc3ccc4nnn(C)c4c3)c2)nc(S(=O)(=O)CCCN(c2ccccc2)C2CC2)n1 [Compound 381]
46 | 1 to 1000 | Cc1cc(-c2cc(F)c(=O)n(Cc3ccc4c(c3)OCO4)c2)nc(S(=O)(=O)CCCC(=O)N(C(C)(C)C)C(C)(C)C)n1 [Compound 382]
47 | 1 to 1000 | Cc1cc(-c2cc(F)c(=O)n(Cc3ccc4c(c3)OCO4)c2)nc(S(=O)(=O)CCC(OCc2ccccc2F)c2ccccn2)n1 (centres unmarked) [Compound 383]
48 | 1 to 1000 | Cc1cc(-c2cc(F)c(=O)n(Cc3ccc4c(c3)OCO4)c2)nc(S(=O)(=O)CCC(OCc2ccccc2F)c2cccnc2)n1 (centres unmarked) [Compound 384]
49 | 1 to 1000 | Cc1cc(-c2cc(F)c(=O)n(Cc3ccc4c(c3)OCO4)c2)nc(S(=O)(=O)CCC(OCc2ccccc2F)c2ccncc2)n1 (centres unmarked) [Compound 385]
50 | 1 to 1000 | Cc1cc(-c2cc(F)c(=O)n(Cc3ccc4c(c3)OCO4)c2)nc(S(=O)(=O)CCC(OCc2ccccc2F)c2cccn2C)n1 (centres unmarked) [Compound 386]
51 | 1 to 1000 | Cc1cc(-c2cc(F)c(=O)n(Cc3ccc4c(c3)OCO4)c2)nc(S(=O)(=O)CCC(OCc2ccccc2F)c2cc3ccccc3n2C)n1 (centres unmarked) [Compound 387]
52 | 1 to 1000 | Cc1cc(-c2cc(F)c(=O)n(Cc3ccc4c(c3)OCO4)c2)nc(S(=O)(=O)CCC(OCc2ccccc2F)c2ccco2)n1 (centres unmarked) [Compound 388]
53 | 1 to 1000 | Cc1cc(-c2cc(F)c(=O)n(Cc3ccc4c(c3)OCO4)c2)nc(S(=O)(=O)CCC(OCc2ccccc2F)c2cccs2)n1 (centres unmarked) [Compound 389]
54 | 1 to 1000 | Cc1cc(-c2cc(F)c(=O)n(Cc3ccc4c(c3)OCO4)c2)nc(S(=O)(=O)CCC(OCc2ccccc2F)c2cncs2)n1 (centres unmarked) [Compound 390]
55 | 1 to 1000 | Cc1cc(-c2cc(F)c(=O)n(Cc3ccc4c(c3)OCO4)c2)nc(S(=O)(=O)CCC(OCc2ccccc2F)c2ccc3ncccc3c2)n1 (centres unmarked) [Compound 391]
56 | 1 to 1000 | Cc1cc(-c2cc(F)c(=O)n(Cc3ccc4c(c3)OCO4)c2)nc(S(=O)(=O)CCC(OCc2ccccc2F)c2ccc3ccn(C)c3c2)n1 (centres unmarked) [Compound 392]
